Assay results: BindingDB's records for doi:10.1021/acs.jmedchem.6b00993 (Purdue University, 2016)

Molecular target: Serine/threonine-protein phosphatase 5 (Homo sapiens) (UniProt P53041)
Assay: Inhibition of His-tagged PP5 (unknown origin) expressed in Escherichia coli BL21 cells using para-nitrophenyl phosphate as substrate incubated for 5 to 10 mins by microplate reader based spectrophotometric analysis

Chain of Serine/threonine-protein phosphatase 5 (Homo sapiens) (P53041 whole entry, looked up): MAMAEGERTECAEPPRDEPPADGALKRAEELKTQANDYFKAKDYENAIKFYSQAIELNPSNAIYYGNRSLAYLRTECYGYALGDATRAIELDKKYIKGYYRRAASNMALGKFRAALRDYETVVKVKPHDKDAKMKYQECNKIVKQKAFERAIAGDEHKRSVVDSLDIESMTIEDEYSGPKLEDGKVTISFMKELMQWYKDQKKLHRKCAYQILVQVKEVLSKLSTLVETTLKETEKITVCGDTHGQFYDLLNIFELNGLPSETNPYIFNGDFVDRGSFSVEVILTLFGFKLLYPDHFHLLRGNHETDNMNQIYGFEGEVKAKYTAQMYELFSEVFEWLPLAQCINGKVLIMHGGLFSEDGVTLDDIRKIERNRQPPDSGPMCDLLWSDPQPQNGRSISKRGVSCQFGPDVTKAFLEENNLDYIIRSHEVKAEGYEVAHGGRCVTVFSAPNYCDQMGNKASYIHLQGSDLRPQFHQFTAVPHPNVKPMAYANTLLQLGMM

IC50, > 200 µM:
O=C(Nc1nc2ccccc2s1)C(c1ccccc1)S(=O)(=O)O (centres undefined), O=C(Nc1cnc2ccccc2c1)C(c1ccccc1)S(=O)(=O)O (centres undefined), O=C(Nc1ccc(N2CCOCC2)cc1)C(c1ccccc1)S(=O)(=O)O (centres undefined), O=C(Nc1ccc2nc(C(F)(F)F)[nH]c2c1)C(c1ccccc1)S(=O)(=O)O (centres undefined)
